What was measured:
[1] = target: human tankyrase 1 PARP catalytic domain, TNKS1P (Homo sapiens (Human), UniProt O95271); assay: TNKS1 autoparsylation assay (LC/MS detection of nicotinamide); conditions: read-out: TNKS1 AP IC50, 20 nM enzyme, 250 μM β-NAD+, 60 min
Protocol: (§2) Biochemical Assay to Determine Compound Inhibition of TNKS Enzyme Activity
(§3) The autoparsylation activity of the TNKS 1/2 or PARP1/2 enzymes was measured by the liquid chromatography-mass spectrometry (LC/MS) detection of nicotinamide as readout. Compound activity in inhibiting the TNKS and PARP autoparsylation was evaluated by IC50 measurements. […] For the background control wells, 10 μL of the 5× quenching solution per well was added prior to the addition of β-NAD^+. The % Inhibition was calculated as: (Control−Sample)/(Control−Background)*100.

[2] = test system: Non-small lung cancer ABC-1 cells; assay: Cellular proliferation assay (CellTiter-Glo); format: cell-based; conditions: Homo sapiens, 72 h; ABC-1 cells, 3 days of compound treatment; read-out: ABC-1 IC50
Protocol: Cellular Proliferation Assay to Determine Compound Inhibition of Cancer Cell Growth
Viable cells were measured after 3 days of compound treatment using the CellTiter-Glo assay (Promega, G7570). Assay was performed following the manufacture protocol.

[3] = test system: Axin2 protein in SW480 cells; assay: Cellular ELISA assay of Axin2 protein stabilization; format: cell-based; conditions: Homo sapiens, 24 hrs, read-out: Axin AC50
Method in brief: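 SW480 colorectal cells seeded overnight, treated with compound, then lysed. Axin2 in lysates measured by sandwich ELISA: anti-Axin2 capture antibody coated at 1 μg/ml (pH 9.2), lysate 2 h at room temperature, biotinylated anti-Axin2 detection 2 h, then streptavidin-HRP 30 min.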

[4] = target: tankyrase 2 protein PARP domain, TNKS2P (Homo sapiens (Human), UniProt Q9H2K2); assay: TNKS2 autoparsylation assay (LC/MS detection of nicotinamide); conditions: read-out: TNKS2 AP IC50, 20 nM enzyme, 250 μM β-NAD+, 60 min
Protocol: as §2, §3

Human PARP1 = Human PARP1 (Homo sapiens (Human), UniProt P09874); assay: PARP1 autoparsylation assay (LC/MS detection of nicotinamide); format: biochemical; conditions: 20 nM enzyme, 250 μM β-NAD+, 60 min
Protocol: (§1) The autoparsylation activity of the TNKS 1/2 or PARP1/2 enzymes was measured by the liquid chromatography-mass spectrometry (LC/MS) detection of nicotinamide as readout. Compound activity in inhibiting the TNKS and PARP autoparsylation was evaluated by IC50 measurements.

[5] = test system: Wnt ligand-induced signaling in HEK293 cells; assay: Wnt-responsive Super-TOpFlash (STF) luciferase reporter gene assay; format: cell-based; conditions: Homo sapiens, Wnt3A condition medium
Method in brief: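 HEK293 cells (8000/well, 5% FBS medium) treated with 20% mouse L-cell Wnt3A conditioned medium plus compounds in 10-point serial dilution; luciferase read next day. Inhibition calculated relative to Wnt3A-induced signal without compound and background without Wnt3A CM or compound.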

PARP2 = PARP2 (Mus musculus (Mouse), UniProt O88554); assay: PARP2 autoparsylation assay (LC/MS detection of nicotinamide); format: biochemical; conditions: 20 nM enzyme, 250 μM β-NAD+, 60 min
Protocol: as §1

tankyrase 2 protein PARP domain, TNKS2P, sequence (Q9H2K2 959-1164): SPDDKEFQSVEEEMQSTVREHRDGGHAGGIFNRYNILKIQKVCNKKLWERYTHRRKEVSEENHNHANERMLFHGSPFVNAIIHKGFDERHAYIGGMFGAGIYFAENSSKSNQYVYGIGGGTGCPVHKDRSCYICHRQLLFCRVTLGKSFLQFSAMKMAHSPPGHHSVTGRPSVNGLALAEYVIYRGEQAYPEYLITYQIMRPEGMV
PARP2, sequence (O88554 whole entry): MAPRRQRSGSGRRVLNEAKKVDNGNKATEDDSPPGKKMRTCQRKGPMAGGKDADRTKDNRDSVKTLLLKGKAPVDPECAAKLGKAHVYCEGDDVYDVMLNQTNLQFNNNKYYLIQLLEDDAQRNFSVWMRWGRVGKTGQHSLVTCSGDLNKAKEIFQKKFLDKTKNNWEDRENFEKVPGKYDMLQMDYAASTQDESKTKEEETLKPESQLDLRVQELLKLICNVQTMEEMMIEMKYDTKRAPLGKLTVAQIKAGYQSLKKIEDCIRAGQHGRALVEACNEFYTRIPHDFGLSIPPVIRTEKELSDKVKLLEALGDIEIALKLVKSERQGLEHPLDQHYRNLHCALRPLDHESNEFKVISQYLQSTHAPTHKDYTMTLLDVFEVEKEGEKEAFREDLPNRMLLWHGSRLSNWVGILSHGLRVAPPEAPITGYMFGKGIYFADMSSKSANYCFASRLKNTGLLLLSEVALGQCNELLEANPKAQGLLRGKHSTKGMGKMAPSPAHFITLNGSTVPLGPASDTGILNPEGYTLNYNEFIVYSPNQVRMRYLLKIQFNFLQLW
Human PARP1, sequence (P09874 whole entry): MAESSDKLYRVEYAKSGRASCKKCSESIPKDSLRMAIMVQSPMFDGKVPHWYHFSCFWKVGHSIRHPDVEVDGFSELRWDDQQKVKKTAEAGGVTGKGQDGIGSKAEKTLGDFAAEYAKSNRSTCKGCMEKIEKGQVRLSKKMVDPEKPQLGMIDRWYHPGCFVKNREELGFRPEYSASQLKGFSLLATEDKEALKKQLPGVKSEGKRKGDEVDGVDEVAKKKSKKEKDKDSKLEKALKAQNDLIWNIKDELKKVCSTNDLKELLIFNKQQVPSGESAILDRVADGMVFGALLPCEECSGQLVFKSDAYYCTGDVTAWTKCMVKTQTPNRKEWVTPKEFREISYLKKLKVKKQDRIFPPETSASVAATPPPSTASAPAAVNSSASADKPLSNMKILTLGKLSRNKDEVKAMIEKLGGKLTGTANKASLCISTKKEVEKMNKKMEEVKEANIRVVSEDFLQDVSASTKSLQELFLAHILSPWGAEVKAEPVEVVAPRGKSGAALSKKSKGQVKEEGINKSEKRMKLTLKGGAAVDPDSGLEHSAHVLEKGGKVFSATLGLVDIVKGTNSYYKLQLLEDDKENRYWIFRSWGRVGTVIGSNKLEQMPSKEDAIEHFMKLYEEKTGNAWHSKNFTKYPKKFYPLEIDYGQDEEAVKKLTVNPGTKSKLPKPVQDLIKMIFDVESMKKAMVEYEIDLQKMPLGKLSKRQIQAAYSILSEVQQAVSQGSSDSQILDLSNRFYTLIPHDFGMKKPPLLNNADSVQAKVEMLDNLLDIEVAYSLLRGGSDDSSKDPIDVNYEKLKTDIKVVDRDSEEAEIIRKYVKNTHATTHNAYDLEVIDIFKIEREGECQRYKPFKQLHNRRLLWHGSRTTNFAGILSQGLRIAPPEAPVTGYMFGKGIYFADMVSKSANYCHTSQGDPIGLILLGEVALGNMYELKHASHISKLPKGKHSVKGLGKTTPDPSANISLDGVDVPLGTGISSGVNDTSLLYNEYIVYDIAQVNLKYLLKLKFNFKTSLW
human tankyrase 1 PARP catalytic domain, TNKS1P, sequence (O95271 1112-1317): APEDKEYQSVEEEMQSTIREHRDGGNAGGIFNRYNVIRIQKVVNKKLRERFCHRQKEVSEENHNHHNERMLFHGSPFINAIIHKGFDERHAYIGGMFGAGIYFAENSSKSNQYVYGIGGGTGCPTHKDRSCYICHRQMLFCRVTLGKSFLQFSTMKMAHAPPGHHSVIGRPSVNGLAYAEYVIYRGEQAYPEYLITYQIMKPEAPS

SMILES | IC50 [1] [nM] | IC50 [2] [nM] | AC50 [3] [nM] | IC50 [4] [nM] | IC50 (Human PARP1) [µM] | IC50 [5] [nM] | IC50 (PARP2) [µM]
C[C@@H](C1CC1)N(Cc1nc2c(c(=O)[nH]1)COCC2)C(=O)CN1CCC(C(=O)c2ccc(F)cc2)CC1 [Example 42, (S)—N-(1-Cyclopropylethyl)-2-(4-(4-fluorobenzoyl)piperidin-1-yl)-N-((4-oxo-4,5,7,8-tetrahydro-3H-pyrano[4,3-d]pyrimidin-2-yl)methyl)acetamide] | 42 ± 3 | 290 | 589 ± 60 | 10 ± 1 | > 19 | 45.7 ± 4.9 | > 19
CC(c1ccc(F)cc1F)N(Cc1nc2c(c(=O)[nH]1)COCC2)C(=O)CN1CCC(C(=O)c2ccc(F)cc2)CC1 (centres unmarked) [Example 37, N-(1-(2,4-Difluorophenyl)ethyl)-2-(4-(4-fluorobenzoyl)piperidin-1-yl)-N-((4-oxo-4,5,7,8-tetrahydro-3H-pyrano[4,3-d]pyrimidin-2-yl)methyl)acetamide] | 155 ± 34 | 510 | 960 ± 520 | 39.5 ± 7.8 | > 19 | 96 ± 19 | > 19
C[C@H](c1ccc(F)cc1)N(Cc1nc2c(c(=O)[nH]1)COCC2)C(=O)CN1CCC(C(=O)c2ccc(F)cc2)CC1 [Example 36, (R)-2-(4-(4-Fluorobenzoyl)piperidin-1-yl)-N-(1-(4-fluorophenyl)ethyl)-N-((4-oxo-4,5,7,8-tetrahydro-3H-pyrano[4,3-d]pyrimidin-2-yl)methyl)acetamide] | 104 ± 28 | 2630 | 1850 ± 310 | 25 ± 7 | > 19 | 127 ± 47 | > 19
CC(c1cccs1)N(Cc1nc2c(c(=O)[nH]1)COCC2)C(=O)CN1CCC(C(=O)c2ccc(F)cc2)CC1 (centres unmarked) [Example 49, 2-[4-(4-Fluoro-benzoyl)-piperidin-1-yl]-N-(4-oxo-3,5,7,8-tetrahydro-4H-pyrano[4,3-d]pyrimidin-2-ylmethyl)-N-(1-thiophen-2-yl-ethyl)-acetamide] | 47.5 ± 3.5 | 170 | 86 ± 3 | 16.5 ± 0.7 | > 19 | 16 ± 4 | > 19
O=C(c1ccc(F)cc1)C1CCN(CC(=O)N(Cc2nc3c(c(=O)[nH]2)COCC3)CC(F)F)CC1 [Example 45, N-(2,2-Difluoro-ethyl)-2-[4-(4-fluoro-benzoyl)-piperidin-1-yl]-N-(4-oxo-3,5,7,8-tetrahydro-4H-pyrano[4,3-d]pyrimidin-2-ylmethyl)-acetamide] | 37 ± 17 | 509 ± 47 | 450 ± 90 | 10.2 ± 7.4 | > 19 | 16 ± 9 | > 19
O=C(c1ccc(OC(F)(F)F)cc1)C1CCN(CC(=O)N(Cc2nc3c(c(=O)[nH]2)COCC3)CC(F)F)CC1 [Example 71, N-(2,2-Difluoro-ethyl)-N-(4-oxo-3,5,7,8-tetrahydro-4H-pyrano[4,3-d]pyrimidin-2-ylmethyl)-2-[4-(4-trifluoromethoxy-benzoyl)-piperidin-1-yl]-acetamide] | 43 ± 1 | 100 | 58 ± 12 | 15 ± 1 | > 19 | 17.5 ± 6.6 | 11.76 ± 0.05
O=C(c1ccc(F)cc1)C1CCN(CC(=O)N(Cc2nc3c(c(=O)[nH]2)COCC3)C[C@H]2CCCO2)CC1 [Example 29, (R)-2-(4-(4-Fluorobenzoyl)piperidin-1-yl)-N-((4-oxo-4,5,7,8-tetrahydro-3H-pyrano[4,3-d]pyrimidin-2-yl)methyl)-N-((tetrahydrofuran-2-yl)methyl)acetamide] | 148 ± 10 | 1430 | 990 ± 220 | 38 ± 1 | > 19 | 79 ± 80 | > 19
O=C(c1ccc(F)cc1)C1CCN(CC(=O)N(Cc2nc3c(c(=O)[nH]2)COCC3)Cc2ccc(F)cc2F)CC1 [Example 40, N-(2,4-Difluorobenzyl)-2-(4-(4-fluorobenzoyl)piperidin-1-yl)-N-((4-oxo-4,5,7,8-tetrahydro-3H-pyrano[4,3-d]pyrimidin-2-yl)methyl)acetamide] | 77 ± 5 | 520 ± 14 | 431 ± 40 | 14 ± 1 | > 19 | 28 ± 4 | > 19
COc1ccc(C(=O)C2CCN(CC(=O)NCc3nc4c(c(=O)[nH]3)COCC4)CC2)cc1 [Example 67, 2-(4-(4-Methoxybenzoyl)piperidin-1-yl)-N-((4-oxo-4,5,7,8-tetrahydro-3H-pyrano[4,3-d]pyrimidin-2-yl)methyl)acetamide] | 28 ± 6 | 45 | 16 ± 3 | 12 ± 2 | 10 ± 3.2 | 5.3 ± 4.1 | 3.64 ± 0.63
O=C(c1ccc(F)cc1)C1CCN(CC(=O)N(CCF)Cc2nc3c(c(=O)[nH]2)COCC3)CC1 [Example 44, 2-[4-(4-Fluoro-benzoyl)-piperidin-1-yl]-N-(2-fluoro-ethyl)-N-(4-oxo-3,5,7,8-tetrahydro-4H-pyrano[4,3-d]pyrimidin-2-ylmethyl)-acetamide] | 72 ± 1.4 | 6400 | > 10000 | 19 ± 1.4 | > 19 | 1470 ± 360 | > 19
CCCOc1ccc(C(=O)C2CCN(CC(=O)NCc3nc4c(c(=O)[nH]3)COCC4)CC2)cc1 [Example 84, N-(4-Oxo-3,5,7,8-tetrahydro-4H-pyrano[4,3-d]pyrimidin-2-ylmethyl)2-[4-(4-propoxy-benzoyl)-piperidin-1-yl]acetamide] | 23 ± 5 | 301 | 162 ± 19 | 13 ± 2 | 4.8 ± 0.25 | 11 ± 3 | 2.13 ± 0.44
COCCN(Cc1nc2c(c(=O)[nH]1)COCC2)C(=O)CN1CCC(C(=O)c2ccc(OC)cc2)CC1 [Example 54, 2-[4-(4-Methoxy-benzoyl)-piperidin-1-yl]-N-(2-methoxy-ethyl)-N-(4-oxo-3,5,7,8-tetrahydro-4H-pyrano[4,3-d]pyrimidin-2-ylmethyl)-acetamide] | 35 ± 6 | 1840 | 1200 ± 100 | 14 ± 3 | > 19 | 91 ± 13 | > 19
CC[C@@H](C)N(Cc1nc2c(c(=O)[nH]1)COCC2)C(=O)CN1CCC(C(=O)c2ccc(F)cc2)CC1 [Example 32, (R)—N-sec-Butyl-2-(4-(4-fluorobenzoyl)piperidin-1-yl)-N-((4-oxo-4,5,7,8-tetrahydro-3H-pyrano[4,3-d]pyrimidin-2-yl)methyl)acetamide] | 43 ± 2 | 370 | 910 ± 150 | 13 ± 1 | > 19 | 49 ± 14 | > 19
O=C(CN1CCC(C(=O)c2ccc(OC3CCOCC3)cc2)CC1)NCc1nc2c(c(=O)[nH]1)COCC2 [Example 87, N-(4-Oxo-3,5,7,8-tetrahydro-4H-pyrano[4,3-d]pyrimidin-2-ylmethyl)-2-{4-[4-(tetrahydro-pyran-4-yloxy)-benzoyl]-1-yl}-acetamide] | 67 ± 4 | 32 | 40 ± 6 | 29 | 5.8 ± 1.3 | 14 ± 1 | 2.84 ± 0.33

— patent US9181266B2, “2-piperidin-1-yl-acetamide compounds for use as tankyrase inhibitors” (NOVARTIS AG, priority 2011, dated 2015)
